# Results as given in ChEMBL document CHEMBL3991601, “The target landscape of clinical kinase drugs” (Science, 2017).
# Calls of active or inactive are those of the source.
# How the values were obtained:
# [1] = molecular target: T1, EKC/KEOPS complex subunit TP53RK (Homo sapiens, UniProt Q96S44)
# T1 sequence (Q96S44 whole entry): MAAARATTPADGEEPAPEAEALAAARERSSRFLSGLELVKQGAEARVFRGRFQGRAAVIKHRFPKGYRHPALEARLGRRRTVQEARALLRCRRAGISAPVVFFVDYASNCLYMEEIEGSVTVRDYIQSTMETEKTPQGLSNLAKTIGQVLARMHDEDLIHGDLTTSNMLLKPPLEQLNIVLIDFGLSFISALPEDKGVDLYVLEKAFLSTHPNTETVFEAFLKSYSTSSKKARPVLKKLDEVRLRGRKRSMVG
# [2] = molecular target: Midasin (Homo sapiens, UniProt Q9NU22)
# [3] = molecular target: T2, Peroxisomal acyl-coenzyme A oxidase 1 (Homo sapiens, UniProt Q15067)
# T2 sequence (Q15067 whole entry): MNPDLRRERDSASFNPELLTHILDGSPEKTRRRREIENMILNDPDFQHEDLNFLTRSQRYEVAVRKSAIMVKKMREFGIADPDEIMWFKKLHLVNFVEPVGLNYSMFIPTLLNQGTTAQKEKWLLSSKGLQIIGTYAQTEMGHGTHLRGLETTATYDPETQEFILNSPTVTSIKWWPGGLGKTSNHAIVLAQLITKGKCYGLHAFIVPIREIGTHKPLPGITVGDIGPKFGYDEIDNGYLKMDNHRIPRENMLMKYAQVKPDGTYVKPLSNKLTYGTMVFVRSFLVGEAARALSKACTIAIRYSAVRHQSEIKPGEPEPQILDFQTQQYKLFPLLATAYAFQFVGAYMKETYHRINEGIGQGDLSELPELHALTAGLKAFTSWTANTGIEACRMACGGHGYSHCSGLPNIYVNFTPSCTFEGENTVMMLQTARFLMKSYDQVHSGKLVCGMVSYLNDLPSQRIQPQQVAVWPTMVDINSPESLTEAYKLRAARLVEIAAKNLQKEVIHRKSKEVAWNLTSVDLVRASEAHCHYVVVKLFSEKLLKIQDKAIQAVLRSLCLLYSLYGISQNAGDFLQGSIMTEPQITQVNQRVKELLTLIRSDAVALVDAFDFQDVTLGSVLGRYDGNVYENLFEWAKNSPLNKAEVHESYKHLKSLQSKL
# [4] = molecular target: T3, Serine/threonine-protein kinase TAO1 (Homo sapiens, UniProt Q7L7X3)
# T3 sequence (Q7L7X3 whole entry): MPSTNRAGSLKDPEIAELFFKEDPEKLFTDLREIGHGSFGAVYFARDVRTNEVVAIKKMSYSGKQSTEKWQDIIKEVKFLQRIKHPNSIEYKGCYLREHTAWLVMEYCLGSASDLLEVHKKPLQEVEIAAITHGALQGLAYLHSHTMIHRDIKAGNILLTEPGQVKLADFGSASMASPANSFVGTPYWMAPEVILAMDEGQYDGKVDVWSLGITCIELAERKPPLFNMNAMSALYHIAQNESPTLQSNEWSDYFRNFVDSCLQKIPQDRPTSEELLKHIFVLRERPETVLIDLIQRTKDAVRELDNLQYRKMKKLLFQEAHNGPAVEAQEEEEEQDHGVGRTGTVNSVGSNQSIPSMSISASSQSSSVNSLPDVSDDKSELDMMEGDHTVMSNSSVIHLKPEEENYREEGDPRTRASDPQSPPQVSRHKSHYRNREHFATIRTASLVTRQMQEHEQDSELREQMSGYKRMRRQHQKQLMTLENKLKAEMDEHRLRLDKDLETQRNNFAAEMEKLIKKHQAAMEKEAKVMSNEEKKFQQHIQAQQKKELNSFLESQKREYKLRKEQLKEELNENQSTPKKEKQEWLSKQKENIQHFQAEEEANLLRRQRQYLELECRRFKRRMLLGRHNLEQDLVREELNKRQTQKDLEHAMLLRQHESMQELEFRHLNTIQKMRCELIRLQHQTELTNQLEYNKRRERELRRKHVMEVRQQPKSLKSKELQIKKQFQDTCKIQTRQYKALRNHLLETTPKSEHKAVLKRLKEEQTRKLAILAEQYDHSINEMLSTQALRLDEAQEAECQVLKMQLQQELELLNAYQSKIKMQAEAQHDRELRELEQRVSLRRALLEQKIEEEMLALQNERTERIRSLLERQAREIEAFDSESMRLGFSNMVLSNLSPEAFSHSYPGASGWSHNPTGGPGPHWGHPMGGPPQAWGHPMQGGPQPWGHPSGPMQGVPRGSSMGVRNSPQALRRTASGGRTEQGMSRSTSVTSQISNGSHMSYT
# [5] = molecular target: Bone morphogenetic protein receptor type-1A (Homo sapiens, UniProt P36894)
# [6] = molecular target: T4, Serine/threonine-protein kinase TBK1 (Homo sapiens, UniProt Q9UHD2)
# T4 sequence (Q9UHD2 whole entry): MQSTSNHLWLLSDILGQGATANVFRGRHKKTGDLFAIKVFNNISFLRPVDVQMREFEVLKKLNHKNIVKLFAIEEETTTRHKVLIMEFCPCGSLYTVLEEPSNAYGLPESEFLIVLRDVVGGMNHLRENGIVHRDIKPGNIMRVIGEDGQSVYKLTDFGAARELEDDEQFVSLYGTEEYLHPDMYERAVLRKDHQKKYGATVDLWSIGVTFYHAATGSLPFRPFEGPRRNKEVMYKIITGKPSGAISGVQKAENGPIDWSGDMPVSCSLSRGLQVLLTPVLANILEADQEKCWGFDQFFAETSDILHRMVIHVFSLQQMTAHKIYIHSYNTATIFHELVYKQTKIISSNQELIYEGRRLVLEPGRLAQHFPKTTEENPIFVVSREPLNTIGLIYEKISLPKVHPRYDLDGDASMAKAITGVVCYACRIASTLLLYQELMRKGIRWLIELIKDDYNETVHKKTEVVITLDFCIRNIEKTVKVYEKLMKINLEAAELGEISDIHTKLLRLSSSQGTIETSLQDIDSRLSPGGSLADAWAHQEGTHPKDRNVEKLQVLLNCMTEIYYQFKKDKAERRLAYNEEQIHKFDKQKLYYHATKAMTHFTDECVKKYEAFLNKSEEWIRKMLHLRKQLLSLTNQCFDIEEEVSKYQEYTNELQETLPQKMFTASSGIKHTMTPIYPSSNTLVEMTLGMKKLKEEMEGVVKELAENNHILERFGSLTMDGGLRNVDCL
# [7] = molecular target: Adenylate kinase 2, mitochondrial (Homo sapiens, UniProt P54819)
# Note: in the data inactive means no Kd found up to 30 µM.
# Sequence of Bone morphogenetic protein receptor type-1A (P36894 whole entry): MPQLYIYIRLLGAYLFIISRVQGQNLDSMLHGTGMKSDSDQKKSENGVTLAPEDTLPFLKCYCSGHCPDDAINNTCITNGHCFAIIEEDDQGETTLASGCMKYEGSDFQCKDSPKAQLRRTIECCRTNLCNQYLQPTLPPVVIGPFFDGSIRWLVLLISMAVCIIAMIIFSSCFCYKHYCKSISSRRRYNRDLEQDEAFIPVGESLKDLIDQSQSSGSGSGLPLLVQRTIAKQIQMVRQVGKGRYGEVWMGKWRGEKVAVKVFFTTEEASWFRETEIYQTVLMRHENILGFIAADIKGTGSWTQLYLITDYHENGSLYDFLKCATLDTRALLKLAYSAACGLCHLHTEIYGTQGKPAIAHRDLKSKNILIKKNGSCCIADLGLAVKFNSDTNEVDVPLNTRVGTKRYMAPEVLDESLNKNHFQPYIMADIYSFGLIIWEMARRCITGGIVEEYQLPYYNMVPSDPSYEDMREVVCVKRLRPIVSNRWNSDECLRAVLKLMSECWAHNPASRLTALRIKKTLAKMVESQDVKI
Kd [1],Kd [2],Kd [3],Kd [4],Kd [5],Kd [6],Kd [7],SMILES
> 30 µM (inactive),> 30 µM (inactive),> 30 µM (inactive),> 30 µM (inactive),> 30 µM (inactive),> 30 µM (inactive),> 30 µM (inactive),CNC(=O)c1ccc(-c2cnc3ncc(Cc4ccc5ncccc5c4)n3n2)cc1F [CAPMATINIB]
> 30 µM (inactive),> 30 µM (inactive),> 30 µM (inactive),> 30 µM (inactive),> 30 µM (inactive),> 30 µM (inactive),> 30 µM (inactive),COc1cc(CCc2cc(NC(=O)c3ccc(N4C[C@@H](C)N[C@@H](C)C4)cc3)n[nH]2)cc(OC)c1 [AZD-4547]
